Data: the supplement of paper PMC10307832

Tests used:
Assay in all cases: relative viability (nuclei count vs DMSO), 5 days (fraction); higher = more cells survive
A-427 = test system: A-427
How it was run: (§1)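 After 5 days of treatment, lung cancer cells in 1536-well plates were fixed and stained in a single step (final 0.05% Triton X-100, 1% formaldehyde, 1 ug/ml Hoechst) and their nuclei counted on 4× images. Treatment had been applied by pin tool the day after seeding as one drug alone or as a fixed anchor-drug dose with five library-drug doses (not always all listed) in √10 steps. Relative viability is the nuclei count of treated wells divided by that of vehicle wells, and values are medians of duplicate plates.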

COR-L 105 = test system: COR-L 105
How it was run: as §1

ChaGo-K-1 = test system: ChaGo-K-1
How it was run: as §1

EKVX = test system: EKVX
How it was run: as §1

EMC-BAC-2 = test system: EMC-BAC-2
How it was run: as §1

H3255 = test system: H3255
How it was run: as §1

HCC-366 = test system: HCC-366
How it was run: as §1

LK-2 = test system: LK-2
How it was run: as §1

LOU-NH91 = test system: LOU-NH91
How it was run: as §1

NCI-H1666 = test system: NCI-H1666
How it was run: as §1

NCI-H1734 = test system: NCI-H1734
How it was run: as §1

NCI-H1755 = test system: NCI-H1755
How it was run: as §1

NCI-H1975 = test system: NCI-H1975
How it was run: as §1

NCI-H2170 = test system: NCI-H2170
How it was run: as §1

NCI-H23 = test system: NCI-H23
How it was run: as §1

NCI-H441 = test system: NCI-H441
How it was run: as §1

NCI-H520 = test system: NCI-H520
How it was run: as §1

NCI-H596 = test system: NCI-H596
How it was run: as §1

PC-3 [JPC-3] = test system: PC-3 [JPC-3]
How it was run: as §1

SK-MES-1 = test system: SK-MES-1
How it was run: as §1

SW 900 = test system: SW 900
How it was run: as §1

Compound: Oc1nc(-c2ccc(C(F)(F)F)cc2)nc2c1CSCC2 [XAV939] + Cc1cc(Nc2cc(N3CCN(C)CC3)nc(Sc3ccc(NC(=O)C4CC4)cc3)n2)n[nH]1 [Tozasertib] (partner 0.1 µM)
- relative viability (A-427; first compound 0.08 µM): 0.238
- relative viability (A-427; first compound 0.253 µM): 0.164
- relative viability (A-427; first compound 0.8 µM): 0.19
- relative viability (A-427; first compound 2.53 µM): 0.193
- relative viability (COR-L 105; first compound 0.08 µM): 0.358
- relative viability (COR-L 105; first compound 0.253 µM): 0.374
- relative viability (COR-L 105; first compound 0.8 µM): 0.349
- relative viability (COR-L 105; first compound 2.53 µM): 0.343
- relative viability (ChaGo-K-1; first compound 0.08 µM): 0.216
- relative viability (ChaGo-K-1; first compound 0.253 µM): 0.223
- relative viability (ChaGo-K-1; first compound 0.8 µM): 0.222
- relative viability (ChaGo-K-1; first compound 2.53 µM): 0.209
- relative viability (EKVX; first compound 0.08 µM): 0.47
- relative viability (EKVX; first compound 0.253 µM): 0.36
- relative viability (EKVX; first compound 0.8 µM): 0.372
- relative viability (EKVX; first compound 2.53 µM): 0.29
- relative viability (EMC-BAC-2; first compound 0.08 µM): 0.272
- relative viability (EMC-BAC-2; first compound 0.253 µM): 0.283
- relative viability (EMC-BAC-2; first compound 0.8 µM): 0.259
- relative viability (EMC-BAC-2; first compound 2.53 µM): 0.201
- relative viability (H3255; first compound 0.08 µM): 0.699
- relative viability (H3255; first compound 0.253 µM): 0.597
- relative viability (H3255; first compound 0.8 µM): 0.597
- relative viability (H3255; first compound 2.53 µM): 0.544
- relative viability (HCC-366; first compound 0.08 µM): 0.163
- relative viability (HCC-366; first compound 0.253 µM): 0.0951
- relative viability (HCC-366; first compound 0.8 µM): 0.116
- relative viability (HCC-366; first compound 2.53 µM): 0.0569
- relative viability (LK-2; first compound 0.08 µM): 0.185
- relative viability (LK-2; first compound 0.253 µM): 0.171
- relative viability (LK-2; first compound 0.8 µM): 0.157
- relative viability (LK-2; first compound 2.53 µM): 0.172
- relative viability (LOU-NH91; first compound 0.08 µM): 0.655
- relative viability (LOU-NH91; first compound 0.253 µM): 0.663
- relative viability (LOU-NH91; first compound 0.8 µM): 0.637
- relative viability (LOU-NH91; first compound 2.53 µM): 0.695
- relative viability (NCI-H1666; first compound 0.08 µM): 0.576
- relative viability (NCI-H1666; first compound 0.253 µM): 0.565
- relative viability (NCI-H1666; first compound 0.8 µM): 0.599
- relative viability (NCI-H1666; first compound 2.53 µM): 0.582
- relative viability (NCI-H1734; first compound 0.08 µM): 0.243
- relative viability (NCI-H1734; first compound 0.253 µM): 0.206
- relative viability (NCI-H1734; first compound 0.8 µM): 0.261
- relative viability (NCI-H1734; first compound 2.53 µM): 0.293
- relative viability (NCI-H1755; first compound 0.08 µM): 0.575
- relative viability (NCI-H1755; first compound 0.253 µM): 0.518
- relative viability (NCI-H1755; first compound 0.8 µM): 0.587
- relative viability (NCI-H1755; first compound 2.53 µM): 0.481
- relative viability (NCI-H1975; first compound 0.08 µM): 0.729
- relative viability (NCI-H1975; first compound 0.253 µM): 0.736
- relative viability (NCI-H1975; first compound 0.8 µM): 0.683
- relative viability (NCI-H1975; first compound 2.53 µM): 0.514
- relative viability (NCI-H2170; first compound 0.08 µM): 0.763
- relative viability (NCI-H2170; first compound 0.253 µM): 0.606
- relative viability (NCI-H2170; first compound 0.8 µM): 0.66
- relative viability (NCI-H2170; first compound 2.53 µM): 0.463
- relative viability (NCI-H23; first compound 0.08 µM): 0.403
- relative viability (NCI-H23; first compound 0.253 µM): 0.373
- relative viability (NCI-H23; first compound 0.8 µM): 0.343
- relative viability (NCI-H23; first compound 2.53 µM): 0.357
- relative viability (NCI-H441; first compound 0.08 µM): 0.818
- relative viability (NCI-H441; first compound 0.253 µM): 0.573
- relative viability (NCI-H441; first compound 0.8 µM): 0.71
- relative viability (NCI-H441; first compound 2.53 µM): 0.601
- relative viability (NCI-H520; first compound 0.08 µM): 0.42
- relative viability (NCI-H520; first compound 0.253 µM): 0.439
- relative viability (NCI-H520; first compound 0.8 µM): 0.461
- relative viability (NCI-H520; first compound 2.53 µM): 0.427
- relative viability (NCI-H596; first compound 0.08 µM): 0.915
- relative viability (NCI-H596; first compound 0.253 µM): 0.798
- relative viability (NCI-H596; first compound 0.8 µM): 1.07
- relative viability (NCI-H596; first compound 2.53 µM): 0.939
- relative viability (PC-3 [JPC-3]; first compound 0.08 µM): 0.901
- relative viability (PC-3 [JPC-3]; first compound 0.253 µM): 0.833
- relative viability (PC-3 [JPC-3]; first compound 0.8 µM): 0.857
- relative viability (PC-3 [JPC-3]; first compound 2.53 µM): 0.744
- relative viability (SK-MES-1; first compound 0.08 µM): 0.956
- relative viability (SK-MES-1; first compound 0.253 µM): 0.816
- relative viability (SK-MES-1; first compound 0.8 µM): 0.807
- relative viability (SK-MES-1; first compound 2.53 µM): 0.768
- relative viability (SW 900; first compound 0.08 µM): 0.663
- relative viability (SW 900; first compound 0.253 µM): 0.549
- relative viability (SW 900; first compound 0.8 µM): 0.535
- relative viability (SW 900; first compound 2.53 µM): 0.323
